Data on eight compounds can be found in PubChem BioAssay (NCI).

Structures are written as SMILES.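 In this assay, cells in 96-well plates receive the compound at five concentrations for 48 hours. Endpoints are linearly interpolated between the surrounding concentrations. The concentration for 50% growth inhibition is given as GI50. TGI is the concentration that stops growth completely.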

Test in all cases: NCI-60 cell line screen, 48 h
Assay [1] has as its system COLO 205 colon.
In assay [2] the test system is IGROV1 ovarian.
In assay [3] the test system is RPMI-8226 leukemia.
Assay [4] has as its system CCRF-CEM leukemia.
The test system of assay [5] is NCI-H226 lung.
In assay [6] the test system is MDA-MB-435.
Assay [7] deals with A498 renal.
Assay [8] concerns MALME-3M melanoma.
Assay [9] concerns A549 NSCLC.
Assay [10] relates to SF-268 CNS.

Regarding `Cn1cccc1-c1cc(-c2ccc(Br)cc2)nc(N)c1C#N`, the GI50 in assay [1] was > 100 µM; in assay [2], 70 µM; in assay [3] it was 78.7 µM; in assay [4], > 100 µM; in assay [5], 63.8 µM; in [6], > 100 µM. Further, the GI50 in [7] was 91.8 µM; in assay [8], > 100 µM; in [9], > 100 µM; in assay [10] it was > 100 µM. The TGI in assay [1], in [2], in assay [3], in assay [4], in assay [5] and in assay [6] was > 100 µM in each case. Further, the TGI in assay [7], in assay [8], in assay [9] and in assay [10] was > 100 µM in each case.

As for `COc1cc2c(/C=C3\C(=O)Nc4ccc(Br)cc43)c(Cl)n(C)c2cc1C`, the GI50 in assay [1] is 1.96 µM; in [3], 1.41 µM; in assay [4], 2.94 µM; in [5] it was 1.88 µM; in [6], 0.249 µM; in assay [7], 0.419 µM. Further, the GI50 in assay [8] is 2.75 µM; in assay [9] it was 2.56 µM; in [10], 1.31 µM. Also, the TGI in assay [1] was 5.43 µM; in assay [3], 16.6 µM; in assay [4], 23.2 µM; in assay [5], 6.18 µM; in assay [6] it was 0.802 µM; in assay [7], 1.62 µM. Further, the figures for the TGI in [8], in assay [9] and in [10] were 10 µM, 14.5 µM and 8 µM, respectively.

For `Cc1ccc(Cl)cc1Nc1nc(C(F)(F)F)ccc1C(=O)Oc1ccc(Cl)cc1`, the GI50 was 9.81 µM in assay [1]; 11.1 µM in assay [2]; 28.6 µM in assay [3]; 7.68 µM in assay [4]; 12.1 µM in [5]; 16.8 µM in [6]. The GI50 in [7] was 11.9 µM; in [9] it was 4.86 µM; in assay [10], 14 µM. Also, the TGI in [1] was > 100 µM; in assay [2] it was > 100 µM; in assay [3], > 100 µM; in assay [4], 24.4 µM; in assay [5] it was 36.1 µM; in assay [6], 51.9 µM. Further, the TGI in assay [7] was 33.2 µM; in assay [9], 20.5 µM; in assay [10], 38.7 µM.

For the compound `O=C(O)/C(Cl)=C(/Cl)C(=O)Nc1cccc(Cl)c1`, the TGI is 23.3 µM in [1]; 39 µM in assay [2]; 46.2 µM in [3]; 19 µM in assay [4]; 67.2 µM in assay [5]; 46.5 µM in assay [6]. Also, the TGI in assay [7] was > 100 µM; in assay [8], 31.7 µM; in [9] it was > 100 µM; in assay [10], 48.3 µM.

`COc1ccc(Cc2ccccc2C(=O)O)c2ccccc12`: the TGI in assay [1] is 34.5 µM; in [2] it was 65.1 µM; in [3], > 100 µM; in assay [4] it was 95.3 µM; in assay [5], > 100 µM; in [6], 54.8 µM. Moreover, the TGI was 57.9 µM in assay [7], 59.3 µM in [8], > 100 µM in [9] and 87.5 µM in assay [10].

On to `COc1ccccc1Nc1nc(-c2cc3cccc(C(F)(F)F)c3oc2=O)cs1`, for which the GI50 in [1] is 0.172 µM; in assay [2], 0.257 µM; in assay [3], 0.24 µM; in assay [4], 0.291 µM; in [5] it was 0.601 µM; in [6], 0.0297 µM. Further, the GI50 in assay [7] is 0.0366 µM; in assay [8] it was 1.63 µM; in assay [9], 0.261 µM; in assay [10], 0.214 µM. Besides, the TGI in assay [1] was 0.522 µM; in assay [2], > 53 µM; in assay [3], > 71.4 µM; in assay [4], > 100 µM; in assay [5] it was 56.3 µM; in assay [6] it was 0.164 µM. In addition, the TGI in assay [7] was 38.9 µM; in assay [8], > 85.6 µM; in assay [9] it was > 100 µM; in assay [10], > 100 µM.

With `COC(=O)c1ccc2c(c1)nc(-c1ccc(Cl)cc1)n2-c1cc(C(C)(C)C)[nH]n1`, the GI50 in assay [1] was 2.29 µM; in [2], 3.64 µM; in [3], 3.93 µM; in assay [4] it was 4.91 µM; in assay [5], 4.09 µM; in assay [6], 1.19 µM. Further, the GI50 in [7] was 2.26 µM; in [8], 3.25 µM; in assay [9], 4.03 µM; in assay [10], 3.29 µM. The TGI was 6.04 µM in assay [1]; 25 µM in [2]; 11.2 µM in assay [3]; > 100 µM in assay [4]; 44 µM in assay [5]; 5 µM in [6]. Also, the TGI in assay [7] was 9.76 µM; in assay [8], 15.6 µM; in assay [9], 94.5 µM; in assay [10], 17.8 µM.

Consider `CCCCCCCCSC1=CC(=O)C(OC)=C(OC)C1=O`, for which the GI50 is 4.17 µM in assay [1]; 5.66 µM in [2]; 1.27 µM in assay [3]; 5.4 µM in assay [5]; 1.88 µM in assay [6]; 6.13 µM in [7]. Besides, the GI50 was 1.96 µM in assay [8], 5.49 µM in assay [9] and 3.75 µM in assay [10]. The TGI is 14.6 µM in [1]; 23.4 µM in [2]; > 100 µM in assay [3]; 27.5 µM in assay [5]; 7.57 µM in assay [6]; 20.4 µM in [7]. The TGI in assay [8] was 4.44 µM; in assay [9], 18.5 µM; in assay [10] it was 14.7 µM.
